According to ChEMBL document CHEMBL1201862, “PubChem BioAssay data set” (2004):
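Step 1: Grow cells in 96-well plates. Step 2: Expose to compound for 48 hours at 5 concentrations. Step 3: Interpolate endpoints linearly; if unreached, use highest concentration. GI50 is the concentration that inhibits growth by half.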 The source made the active and inactive calls. Cut-off read from the data, not from the text of the source: active = GI50 up to about 1.1 µM and inactive = higher.

Assays:
Test in all cases: NCI-60 cell line screen, 48 h
786-0 = system: 786-0
A498 = system: A498
A549 = system: A549
ACHN = system: ACHN
BT-549 = system: BT-549
CAKI-1 = system: CAKI-1
CCRF-CEM = system: CCRF-CEM
COLO 205 = system: COLO 205
DU-145 = system: DU-145
EKVX = system: EKVX
HCC 2998 = system: HCC 2998
HCT-116 = system: HCT-116
HCT-15 = system: HCT-15
HL-60 = system: HL-60
HOP-62 = system: HOP-62
HOP-92 = system: HOP-92
HT-29 = system: HT-29
Hs-578T = system: Hs-578T
IGROV-1 = system: IGROV-1
K562 = system: K562
KM12 = system: KM12
LOX IMVI = system: LOX IMVI
M14 = system: M14
MCF7 = system: MCF7
MDA-MB-231 = system: MDA-MB-231
MDA-MB-435 = system: MDA-MB-435
MDA-N = system: MDA-N
MOLT-4 = system: MOLT-4
Malme-3M = system: Malme-3M
NCI-H226 = system: NCI-H226
NCI-H23 = system: NCI-H23
NCI-H460 = system: NCI-H460
NCI/ADR-RES = system: NCI/ADR-RES
OVCAR-3 = system: OVCAR-3
OVCAR-4 = system: OVCAR-4
OVCAR-5 = system: OVCAR-5
OVCAR-8 = system: OVCAR-8
PC-3 = system: PC-3
RPMI-8226 = system: RPMI-8226
RXF 393 = system: RXF 393
SF-268 = system: SF-268
SF-295 = system: SF-295
SF-539 = system: SF-539
SK-MEL-28 = system: SK-MEL-28
SK-MEL-2 = system: SK-MEL-2
SK-MEL-5 = system: SK-MEL-5
SK-OV-3 = system: SK-OV-3
SN12C = system: SN12C
SNB-19 = system: SNB-19
SNB-75 = system: SNB-75
SR = system: SR
SW-620 = system: SW-620
T47D = system: T47D
TK-10 = system: TK-10
U-251 = system: U-251
UACC-257 = system: UACC-257
UACC-62 = system: UACC-62
UO-31 = system: UO-31

## O=C1OI(C#Cc2ccccc2)c2ccccc21
786-0
  GI50: 3.11 µM (inactive)
A498
  GI50: 4.57 µM (inactive)
A549
  GI50: 8.65 µM (inactive)
ACHN
  GI50: 2.18 µM (inactive)
BT-549
  GI50: 2.88 µM (inactive)
CAKI-1
  GI50: 2.61 µM (inactive)
CCRF-CEM
  GI50: 0.355 µM (active)
COLO 205
  GI50: 3.37 µM (inactive)
DU-145
  GI50: 7.18 µM (inactive)
EKVX
  GI50: 2.76 µM (inactive)
HCC 2998
  GI50: 6.58 µM (inactive)
HCT-116
  GI50: 2.24 µM (inactive)
HCT-15
  GI50: 3.18 µM
HL-60
  GI50: 1.12 µM (active)
HOP-62
  GI50: 6.41 µM (inactive)
HOP-92
  GI50: 1.88 µM (inactive)
HT-29
  GI50: 3.94 µM (inactive)
Hs-578T
  GI50: 4.16 µM (inactive)
IGROV-1
  GI50: 2.14 µM (inactive)
K562
  GI50: 2.15 µM (inactive)
KM12
  GI50: 3.52 µM (inactive)
LOX IMVI
  GI50: 2.74 µM (inactive)
M14
  GI50: 4.38 µM (inactive)
MCF7
  GI50: 3.69 µM (inactive)
MDA-MB-231
  GI50: 6.1 µM (inactive)
MDA-MB-435
  GI50: 3.72 µM (inactive)
MDA-N
  GI50: 4.16 µM (inactive)
MOLT-4
  GI50: 1.63 µM (inactive)
Malme-3M
  GI50: 1.53 µM (inactive)
NCI-H226
  GI50: 5.26 µM (inactive)
NCI-H23
  GI50: 2.38 µM (inactive)
NCI-H460
  GI50: 3.18 µM (inactive)
NCI/ADR-RES
  GI50: 5.98 µM (inactive)
OVCAR-3
  GI50: 2.64 µM (inactive)
OVCAR-4
  GI50: 3.93 µM (inactive)
OVCAR-5
  GI50: 5.82 µM (inactive)
OVCAR-8
  GI50: 4.39 µM (inactive)
PC-3
  GI50: 4.54 µM (inactive)
RPMI-8226
  GI50: 1.57 µM (inactive)
RXF 393
  GI50: 5.43 µM (inactive)
SF-268
  GI50: 2.84 µM (inactive)
SF-295
  GI50: 13.5 µM (inactive)
SF-539
  GI50: 2.16 µM (inactive)
SK-MEL-28
  GI50: 5.48 µM (inactive)
SK-MEL-2
  GI50: 11.7 µM (inactive)
SK-MEL-5
  GI50: 2.19 µM (inactive)
SK-OV-3
  GI50: 12.2 µM (inactive)
SN12C
  GI50: 4.16 µM (inactive)
SNB-19
  GI50: 7.29 µM (inactive)
SNB-75
  GI50: 3.89 µM (inactive)
SR
  GI50: 1.46 µM (inactive)
SW-620
  GI50: 2.19 µM (inactive)
T47D
  GI50: 3.16 µM (inactive)
TK-10
  GI50: 3.29 µM (inactive)
U-251
  GI50: 2.62 µM (inactive)
UACC-257
  GI50: 5.2 µM (inactive)
UACC-62
  GI50: 5.04 µM (inactive)
UO-31
  GI50: 4.13 µM (inactive)
